The text below walks through data of ChEMBL document CHEMBL3832058, “DailyMed|setid=78f196d4-110e-45b1-813a-725f52c1a4eb | OXCARBAZEPINE -oxcarbazepine tablet, film coated|Bryant Ranch Prepack”.

This data set has as its system Homo sapiens. The data set is described as follows: Pharmacokinetic parameters for Oxcarbazepine and its active metabolite, 10-Monohydroxy Carbazepine evaluated after oral administration of Oxcarbazepine tablets. It counts as ADME, organism-based. The following applies: in vivo, dosed compound id 11, dosed compound name OXCARBAZEPINE; for Excretion: tissue Urine.

By Tmax is commonly meant the time from dosing to the highest level. In the case of `NC(=O)N1c2ccccc2CC(O)c2ccccc21` (configuration not stated) [LICARBAZEPINE], the Excretion was 49%. Under “dietary status Fasting, gender male, regimen Single dose, tissue Plasma”, the time of peak concentration (Tmax) stood at 4.5 h. In addition, the t1/2 (dose 300 mg, regimen Single dose, tissue Plasma) is 19 h. Also, for the setting “tissue Plasma”, the “Vd(app)” value is 49 L and the t1/2 worked out at 9 h.
As to `NC(=O)N1c2ccccc2CC(=O)c2ccccc21` [OXCARBAZEPINE], the Excretion is 27%. Also, the t1/2 (tissue Plasma) turned out to be 2 h.
